Experimental data taken from patent US11117900B2 (Vertex Pharmaceuticals Incorporated, priority 2012, dated 2021).

These molecules were tested on HCT116 colorectal cancer cells (assay: Cisplatin sensitization assay (96 h MTS cell viability)). Details: Cisplatin sensitization value.
Type: cell-based
How it was run: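 The MTS viability read, after 1 h with reagent, followed 96 h of co-treatment at 37° C. in 5% CO2. Both compound and cisplatin were titrated 2-fold from a 10 μM top final concentration in a complete concentration matrix on HCT116 cells. Scores +++/++/+ reflect cisplatin sensitization value ranges.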
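Further: compound concentration needed to lower the IC50 of Cisplatin alone by a set fold.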

Compound | Cisplatin Sensitization Assay
Nc1nn2cc(F)cnc2c1C(=O)Nc1cncc(F)c1N1CCC(C(=O)N2CCC(N3CCCCC3)CC2)CC1 [I-G-60, N-(4-(4-([1,4′-bipiperidine]-1′-carbonyl)piperidin-1-yl)-5-fluoropyridin-3-yl)-2-amino-6-fluoropyrazolo[1,5-a]pyrimidine-3-carboxamide] | +++ (Compounds with a Cisplatin sensitization value of <0.02 μM are marked with “+++.”)
Nc1nn2cc(F)cnc2c1C(=O)Nc1cnccc1-c1ccc(C(=O)N2CCC(N3CCCC3)CC2)nc1 [I-C-53, 2-amino-6-fluoro-N-(6-(4-(pyrrolidin-1-yl)piperidine-1-carbonyl)-[3,4′-bipyridin]-3′-yl)pyrazolo[1,5-a]pyrimidine-3-carboxamide] | +++ (Compounds with a Cisplatin sensitization value of <0.02 μM are marked with “+++.”)
CC(=O)N1CCCC12CCN(c1ccncc1NC(=O)c1c(N)nn3cc(F)cnc13)CC2 [I-N-262, N-(4-(1-acetyl-1,8-diazaspiro[4.5]decan-8-yl)pyridin-3-yl)-2-amino-6-fluoropyrazolo[1,5-a]pyrimidine-3-carboxamide] | +++ (Compounds with a Cisplatin sensitization value of <0.02 μM are marked with “+++.”)
CN1CCC(c2ccncc2NC(=O)c2c(N)nn3cc(C(C)(C)C#N)cnc23)CC1 [I-C-23, 2-amino-6-(2-cyanopropan-2-yl)-N-(4-(1-methylpiperidin-4-yl)pyridin-3-yl)pyrazolo[1,5-a]pyrimidine-3-carboxamide] | + (Compounds with a Cisplatin sensitization value >0.2 μM but <5 μM are marked with “+.”)
Nc1nn2cc(F)cnc2c1C(=O)Nc1cnccc1OC1CCN(C2COC2)CC1 [I-O-11, 2-amino-6-fluoro-N-(4-((1-(oxetan-3-yl)piperidin-4-yl)oxy)pyridin-3-yl)pyrazolo[1,5-a]pyrimidine-3-carboxamide] | +++ (Compounds with a Cisplatin sensitization value of <0.02 μM are marked with “+++.”)
Nc1nn2cc(F)cnc2c1C(=O)Nc1cnccc1OC1CCS(=O)(=O)CC1 [I-O-45, 2-amino-N-(4-((1,1-dioxidotetrahydro-2H-thiopyran-4-yl)oxy)pyridin-3-yl)-6-fluoropyrazolo[1,5-a]pyrimidine-3-carboxamide] | +++ (Compounds with a Cisplatin sensitization value of <0.02 μM are marked with “+++.”)
Nc1nn2cc(F)cnc2c1C(=O)Nc1cnccc1N1CCC(C(=O)N2CC3(CCO3)C2)CC1 [I-G-90, N-(4-(4-(1-oxa-6-azaspiro[3.3]heptane-6-carbonyl)piperidin-1-yl)pyridin-3-yl)-2-amino-6-fluoropyrazolo[1,5-a]pyrimidine-3-carboxamide] | +++ (Compounds with a Cisplatin sensitization value of <0.02 μM are marked with “+++.”)
Nc1nn2cc(F)cnc2c1C(=O)Nc1cncc(F)c1N1CCC(C(=O)NC2COC2)CC1 [I-G-37, 2-amino-6-fluoro-N-(5-fluoro-4-(4-(oxetan-3-ylcarbamoyl)piperidin-1-yl)pyridin-3-yl)pyrazolo[1,5-a]pyrimidine-3-carboxamide] | ++ (Compounds with a Cisplatin sensitization value >0.02 μM but <0.2 μM are marked with “++.”)
Nc1nn2cc(F)cnc2c1C(=O)Nc1cnccc1-n1cnc(C(F)(F)F)c1 [I-N-27, 2-amino-6-fluoro-N-(4-(4-(trifluoromethyl)-1H-imidazol-1-yl)pyridin-3-yl)pyrazolo[1,5-a]pyrimidine-3-carboxamide] | ++ (Compounds with a Cisplatin sensitization value >0.02 μM but <0.2 μM are marked with “++.”)
CN1CCN(c2c(F)cncc2NC(=O)c2c(N)nn3cc(C(C)(C)C#N)cnc23)CC1 [I-N-138, 2-amino-6-(2-cyanopropan-2-yl)-N-(5-fluoro-4-(4-methylpiperazin-1-yl)pyridin-3-yl)pyrazolo[1,5-a]pyrimidine-3-carboxamide] | ++ (Compounds with a Cisplatin sensitization value >0.02 μM but <0.2 μM are marked with “++.”)
CN1CCN(CC2CCN(c3c(F)cncc3NC(=O)c3c(N)nn4cc(C5(C#N)CC5)cnc34)CC2)CC1 [I-N-192, 2-amino-6-(1-cyanocyclopropyl)-N-(5-fluoro-4-(4-((4-methylpiperazin-1-yl)methyl)piperidin-1-yl)pyridin-3-yl)pyrazolo[1,5-a]pyrimidine-3-carboxamide] | +++ (Compounds with a Cisplatin sensitization value of <0.02 μM are marked with “+++.”)
CN1CCC(N(C)S(=O)(=O)C2CCN(c3c(F)cncc3NC(=O)c3c(N)nn4cc(F)cnc34)CC2)CC1 [I-N-148, 2-amino-6-fluoro-N-(5-fluoro-4-(4-(N-methyl-N-(1-methylpiperidin-4-yl)sulfamoyl)piperidin-1-yl)pyridin-3-yl)pyrazolo[1,5-a]pyrimidine-3-carboxamide] | +++ (Compounds with a Cisplatin sensitization value of <0.02 μM are marked with “+++.”)
CN1CCC(S(=O)(=O)N2CCN(c3ccncc3NC(=O)c3c(N)nn4cc(F)cnc34)CC2)CC1 [I-N-188, 2-amino-6-fluoro-N-(4-(4-((1-methylpiperidin-4-yl)sulfonyl)piperazin-1-yl)pyridin-3-yl)pyrazolo[1,5-a]pyrimidine-3-carboxamide] | +++ (Compounds with a Cisplatin sensitization value of <0.02 μM are marked with “+++.”)
CN(C)C1CN(C2CCN(c3ccncc3NC(=O)c3c(N)nn4cc(Cl)cnc34)CC2)C1 [I-N-94, 2-amino-6-chloro-N-(4-(4-(3-(dimethylamino)azetidin-1-yl)piperidin-1-yl)pyridin-3-yl)pyrazolo[1,5-a]pyrimidine-3-carboxamide] | +++ (Compounds with a Cisplatin sensitization value of <0.02 μM are marked with “+++.”)
COc1cncc(NC(=O)c2c(N)nn3cc(F)cnc23)c1-c1cncn1C [I-C-81, 2-amino-6-fluoro-N-(5-methoxy-4-(1-methyl-1H-imidazol-5-yl)pyridin-3-yl)pyrazolo[1,5-a]pyrimidine-3-carboxamide] | +++ (Compounds with a Cisplatin sensitization value of <0.02 μM are marked with “+++.”)
Nc1nn2cc(Cl)cnc2c1C(=O)Nc1cnccc1O[C@H]1CCNC1 [I-O-76, (S)-2-amino-6-chloro-N-(4-(pyrrolidin-3-yloxy)pyridin-3-yl)pyrazolo[1,5-a]pyrimidine-3-carboxamide] | ++ (Compounds with a Cisplatin sensitization value >0.02 μM but <0.2 μM are marked with “++.”)
Nc1nn2cc(Cl)cnc2c1C(=O)Nc1cnccc1N1CCC(N2CC[S+]([O-])CC2)CC1 [I-N-100, 2-amino-6-chloro-N-(4-(4-(1-oxidothiomorpholino)piperidin-1-yl)pyridin-3-yl)pyrazolo[1,5-a]pyrimidine-3-carboxamide] | ++ (Compounds with a Cisplatin sensitization value >0.02 μM but <0.2 μM are marked with “++.”)
Cc1ncccc1-c1ccncc1NC(=O)c1c(N)nn2cc(F)cnc12 [I-C-20, 2-amino-6-fluoro-N-(2-methyl-[3,4′-bipyridin]-3′-yl)pyrazolo[1,5-a]pyrimidine-3-carboxamide] | +++ (Compounds with a Cisplatin sensitization value of <0.02 μM are marked with “+++.”)
CN1CCN(C(=O)C2CCCN(c3c(F)cncc3NC(=O)c3c(N)nn4cc(F)cnc34)C2)CC1 (stereo not shown) [I-N-289, 2-amino-6-fluoro-N-(5-fluoro-4-(3-(4-methylpiperazine-1-carbonyl)piperidin-1-yl)pyridin-3-yl)pyrazolo[1,5-a]pyrimidine-3-carboxamide] | ++ (Compounds with a Cisplatin sensitization value >0.02 μM but <0.2 μM are marked with “++.”)
COCC1CN(c2ccncc2NC(=O)c2c(N)nn3cc(Cl)cnc23)CCN1C (stereo not shown) [I-N-47, 2-amino-6-chloro-N-(4-(3-(methoxymethyl)-4-methylpiperazin-1-yl)pyridin-3-yl)pyrazolo[1,5-a]pyrimidine-3-carboxamide] | ++ (Compounds with a Cisplatin sensitization value >0.02 μM but <0.2 μM are marked with “++.”)
N#C[C@@H]1CCN(c2c(Cl)cncc2NC(=O)c2c(N)nn3cc(F)cnc23)C1 [I-N-285, (R)-2-amino-N-(5-chloro-4-(3-cyanopyrrolidin-1-yl)pyridin-3-yl)-6-fluoropyrazolo[1,5-a]pyrimidine-3-carboxamide] | ++ (Compounds with a Cisplatin sensitization value >0.02 μM but <0.2 μM are marked with “++.”)
CN1CC2(CCC1=O)CCN(c1ccncc1NC(=O)c1c(N)nn3cc(F)cnc13)CC2 [I-N-231, 2-amino-6-fluoro-N-(4-(2-methyl-3-oxo-2,9-diazaspiro[5.5]undecan-9-yl)pyridin-3-yl)pyrazolo[1,5-a]pyrimidine-3-carboxamide] | +++ (Compounds with a Cisplatin sensitization value of <0.02 μM are marked with “+++.”)
CCN1CCCC1C(=O)N1CCN(c2c(F)cncc2NC(=O)c2c(N)nn3cc(F)cnc23)CC1 (stereo not shown) [I-N-185, 2-amino-N-(4-(4-(1-ethylpyrrolidine-2-carbonyl)piperazin-1-yl)-5-fluoropyridin-3-yl)-6-fluoropyrazolo[1,5-a]pyrimidine-3-carboxamide] | ++ (Compounds with a Cisplatin sensitization value >0.02 μM but <0.2 μM are marked with “++.”)
Cn1ccc2c(NC(=O)c3c(N)nn4cc(F)cnc34)cncc21 [I-C-74, 2-amino-6-fluoro-N-(1-methyl-1H-pyrrolo[2,3-c]pyridin-4-yl)pyrazolo[1,5-a]pyrimidine-3-carboxamide] | + (Compounds with a Cisplatin sensitization value >0.2 μM but <5 μM are marked with “+.”)
Cc1nc(C(F)(F)F)cn1-c1ccncc1NC(=O)c1c(N)nn2cc(F)cnc12 [I-N-30, 2-amino-6-fluoro-N-(4-(2-methyl-4-(trifluoromethyl)-1H-imidazol-1-yl)pyridin-3-yl)pyrazolo[1,5-a]pyrimidine-3-carboxamide] | ++ (Compounds with a Cisplatin sensitization value >0.02 μM but <0.2 μM are marked with “++.”)
